According to paper PMC7673538 (PLoS Biology, 2020):

Tested on: HeLa R19 cells
Assay: not given
Details: not given

SMILES | cytotoxicity (in words)
COc1ccc(N(Cc2ccccc2)C(=O)c2ccco2)cc1 [Compound 19c, N-Benzyl-N-(4-methoxyphenyl)furan-2-carboxamide] | did not show any cytotoxicity

Tested on: HRV-A2
Assay: microbe, parasite or virus in culture
Format: cell-based, human rhinovirus
Details: Human rhinovirus sp., HRVA2, HeLa R19, read-out: EC50 HRV-A2

SMILES | EC50 [µM]
COc1ccc(N(Cc2ccccc2)C(=O)c2ccco2)cc1 [Compound 19c, N-Benzyl-N-(4-methoxyphenyl)furan-2-carboxamide] | > 30

Tested on: not listed separately
Assay: in vitro
Details: monkey, CC50

SMILES | CC50 [µM]
COc1ccc(N(Cc2ccccc2)C(=O)c2ccco2)cc1 [Compound 19c, N-Benzyl-N-(4-methoxyphenyl)furan-2-carboxamide] | > 100

Same assay, conditions: monkey, CC50 BGM Average

SMILES | CC50 [µM]
COc1ccc(N(Cc2ccccc2)C(=O)c2ccco2)cc1 [Compound 19c, N-Benzyl-N-(4-methoxyphenyl)furan-2-carboxamide] | > 100

Same assay, conditions: monkey, Exp 1 CC50 BGM

SMILES | CC50 [µM]
COc1ccc(N(Cc2ccccc2)C(=O)c2ccco2)cc1 [Compound 19c, N-Benzyl-N-(4-methoxyphenyl)furan-2-carboxamide] | > 100

Same assay, conditions: monkey, Exp 2 CC50 BGM

SMILES | CC50 [µM]
COc1ccc(N(Cc2ccccc2)C(=O)c2ccco2)cc1 [Compound 19c, N-Benzyl-N-(4-methoxyphenyl)furan-2-carboxamide] | > 100

Tested on: CV-A24
Assay: microbe, parasite or virus in culture
Format: cell-based, coxsackievirus A24
Details: Enterovirus C, CVA24, HeLa R19, read-out: EC50 CV-A24

SMILES | EC50 [µM]
COc1ccc(N(Cc2ccccc2)C(=O)c2ccco2)cc1 [Compound 19c, N-Benzyl-N-(4-methoxyphenyl)furan-2-carboxamide] | > 30

Tested on: PV-1
Assay: microbe, parasite or virus in culture
Format: cell-based, poliovirus 1
Details: Enterovirus C, HeLa R19, read-out: EC50 PV-1

SMILES | EC50 [µM]
COc1ccc(N(Cc2ccccc2)C(=O)c2ccco2)cc1 [Compound 19c, N-Benzyl-N-(4-methoxyphenyl)furan-2-carboxamide] | > 30

Tested on: not listed separately
Assay: in vitro
Details: human, CC50 Average

SMILES | CC50 [µM]
COc1ccc(N(Cc2ccccc2)C(=O)c2ccco2)cc1 [Compound 19c, N-Benzyl-N-(4-methoxyphenyl)furan-2-carboxamide] | > 30

Same assay, conditions: human, CC50 HelaR19 Average

SMILES | CC50 [µM]
COc1ccc(N(Cc2ccccc2)C(=O)c2ccco2)cc1 [Compound 19c, N-Benzyl-N-(4-methoxyphenyl)furan-2-carboxamide] | > 100

Same assay, conditions: human, Exp 1 CC50

SMILES | CC50 [µM]
COc1ccc(N(Cc2ccccc2)C(=O)c2ccco2)cc1 [Compound 19c, N-Benzyl-N-(4-methoxyphenyl)furan-2-carboxamide] | > 30

Same assay, conditions: human, Exp 1 CC50 HelaR19

SMILES | CC50 [µM]
COc1ccc(N(Cc2ccccc2)C(=O)c2ccco2)cc1 [Compound 19c, N-Benzyl-N-(4-methoxyphenyl)furan-2-carboxamide] | > 100

Same assay, conditions: human, Exp2 CC50

SMILES | CC50 [µM]
COc1ccc(N(Cc2ccccc2)C(=O)c2ccco2)cc1 [Compound 19c, N-Benzyl-N-(4-methoxyphenyl)furan-2-carboxamide] | > 30

Same assay, conditions: human, Exp 2 CC50 HelaR19

SMILES | CC50 [µM]
COc1ccc(N(Cc2ccccc2)C(=O)c2ccco2)cc1 [Compound 19c, N-Benzyl-N-(4-methoxyphenyl)furan-2-carboxamide] | > 100

Tested on: CV-B3
Assay: microbe, parasite or virus in culture
Format: cell-based, coxsackievirus B3
Details: not given

SMILES | increase or decrease of antiviral activity against CV-B3
COc1ccc(N(Cc2ccccc2)C(=O)c2ccco2)cc1 [Compound 19c, N-Benzyl-N-(4-methoxyphenyl)furan-2-carboxamide] | less than 3 fold

Same assay, conditions: Enterovirus B, CVB3, HeLa

SMILES | EC50 [µM]
COc1ccc(N(Cc2ccccc2)C(=O)c2ccco2)cc1 [Compound 19c, N-Benzyl-N-(4-methoxyphenyl)furan-2-carboxamide] | 4.42 ± 0.36

Same assay, conditions: Enterovirus B, CVB3, HeLa R19, read-out: CV-B3 EC50 Average

SMILES | EC50 [µM]
COc1ccc(N(Cc2ccccc2)C(=O)c2ccco2)cc1 [Compound 19c, N-Benzyl-N-(4-methoxyphenyl)furan-2-carboxamide] | 4.07

Same assay, conditions: Enterovirus B, CVB3, HeLa R19, read-out: CV-B3 Exp 1 EC50

SMILES | EC50 [µM]
COc1ccc(N(Cc2ccccc2)C(=O)c2ccco2)cc1 [Compound 19c, N-Benzyl-N-(4-methoxyphenyl)furan-2-carboxamide] | 4.32

Same assay, conditions: Enterovirus B, CVB3, HeLa R19, read-out: CV-B3 Exp2 EC50

SMILES | EC50 [µM]
COc1ccc(N(Cc2ccccc2)C(=O)c2ccco2)cc1 [Compound 19c, N-Benzyl-N-(4-methoxyphenyl)furan-2-carboxamide] | 3.82

Same assay, conditions: Enterovirus B, CVB3, HeLa R19, read-out: EC50 HelaR19 Average

SMILES | EC50 [µM]
COc1ccc(N(Cc2ccccc2)C(=O)c2ccco2)cc1 [Compound 19c, N-Benzyl-N-(4-methoxyphenyl)furan-2-carboxamide] | 4.41

Same assay, conditions: Enterovirus B, CVB3, HeLa R19, read-out: Exp 1 EC50 HelaR19

SMILES | EC50 [µM]
COc1ccc(N(Cc2ccccc2)C(=O)c2ccco2)cc1 [Compound 19c, N-Benzyl-N-(4-methoxyphenyl)furan-2-carboxamide] | 4.06

Same assay, conditions: Enterovirus B, CVB3, HeLa R19, read-out: Exp 2 EC50 HelaR19

SMILES | EC50 [µM]
COc1ccc(N(Cc2ccccc2)C(=O)c2ccco2)cc1 [Compound 19c, N-Benzyl-N-(4-methoxyphenyl)furan-2-carboxamide] | 4.77

Tested on: EV-A71
Assay: microbe, parasite or virus in culture
Format: cell-based, enterovirus A71
Details: Enterovirus A, EVA71, HeLa R19, read-out: EC50 EV-A71

SMILES | EC50 [µM]
COc1ccc(N(Cc2ccccc2)C(=O)c2ccco2)cc1 [Compound 19c, N-Benzyl-N-(4-methoxyphenyl)furan-2-carboxamide] | > 30

Tested on: not listed separately
Assay: in vitro
Details: human, CC50

SMILES | CC50 [µM]
COc1ccc(N(Cc2ccccc2)C(=O)c2ccco2)cc1 [Compound 19c, N-Benzyl-N-(4-methoxyphenyl)furan-2-carboxamide] | > 100

Same assay, conditions: human, CC50 Hap1 Average

SMILES | CC50 [µM]
COc1ccc(N(Cc2ccccc2)C(=O)c2ccco2)cc1 [Compound 19c, N-Benzyl-N-(4-methoxyphenyl)furan-2-carboxamide] | > 100

Same assay, conditions: human, Exp 1 CC50 Hap1

SMILES | CC50 [µM]
COc1ccc(N(Cc2ccccc2)C(=O)c2ccco2)cc1 [Compound 19c, N-Benzyl-N-(4-methoxyphenyl)furan-2-carboxamide] | > 100

Same assay, conditions: human, Exp 2 CC50 Hap1

SMILES | CC50 [µM]
COc1ccc(N(Cc2ccccc2)C(=O)c2ccco2)cc1 [Compound 19c, N-Benzyl-N-(4-methoxyphenyl)furan-2-carboxamide] | > 100

Tested on: EV-D68
Assay: microbe, parasite or virus in culture
Format: cell-based, enterovirus D68
Details: Enterovirus D, EVD68, HeLa R19, read-out: EC50 EV-D68

SMILES | EC50 [µM]
COc1ccc(N(Cc2ccccc2)C(=O)c2ccco2)cc1 [Compound 19c, N-Benzyl-N-(4-methoxyphenyl)furan-2-carboxamide] | 8.94 ± 0.82

Same assay, conditions: Enterovirus D, EVD68, HeLa R19, read-out: EC50 Exp1

SMILES | EC50 [µM]
COc1ccc(N(Cc2ccccc2)C(=O)c2ccco2)cc1 [Compound 19c, N-Benzyl-N-(4-methoxyphenyl)furan-2-carboxamide] | 8.12

Same assay, conditions: Enterovirus D, EVD68, HeLa R19, read-out: EC50 Exp2

SMILES | EC50 [µM]
COc1ccc(N(Cc2ccccc2)C(=O)c2ccco2)cc1 [Compound 19c, N-Benzyl-N-(4-methoxyphenyl)furan-2-carboxamide] | 9.76

Tested on: CV-B3
Assay: microbe, parasite or virus in culture
Format: cell-based, coxsackievirus B3
Details: Enterovirus B, CVB3, HAP1, read-out: EC50 Hap1 Average

SMILES | EC50 [µM]
COc1ccc(N(Cc2ccccc2)C(=O)c2ccco2)cc1 [Compound 19c, N-Benzyl-N-(4-methoxyphenyl)furan-2-carboxamide] | 2.12

Same assay, conditions: Enterovirus B, CVB3, HAP1, read-out: Exp 1 EC50 Hap1

SMILES | EC50 [µM]
COc1ccc(N(Cc2ccccc2)C(=O)c2ccco2)cc1 [Compound 19c, N-Benzyl-N-(4-methoxyphenyl)furan-2-carboxamide] | 2.15

Same assay, conditions: Enterovirus B, CVB3, HAP1, read-out: Exp 2 EC50 Hap1

SMILES | EC50 [µM]
COc1ccc(N(Cc2ccccc2)C(=O)c2ccco2)cc1 [Compound 19c, N-Benzyl-N-(4-methoxyphenyl)furan-2-carboxamide] | 2.09

Tested on: HRV-B14
Assay: microbe, parasite or virus in culture
Format: cell-based, human rhinovirus
Details: Human rhinovirus sp., HRVB14, HeLa R19, read-out: EC50 HRV-B14

SMILES | EC50 [µM]
COc1ccc(N(Cc2ccccc2)C(=O)c2ccco2)cc1 [Compound 19c, N-Benzyl-N-(4-methoxyphenyl)furan-2-carboxamide] | > 30

Tested on: CV-B3
Assay: microbe, parasite or virus in culture
Format: cell-based, coxsackievirus B3
Details: Enterovirus B, CVB3, BGM, read-out: EC50 BGM Average

SMILES | EC50 [µM]
COc1ccc(N(Cc2ccccc2)C(=O)c2ccco2)cc1 [Compound 19c, N-Benzyl-N-(4-methoxyphenyl)furan-2-carboxamide] | 4.3

Same assay, conditions: Enterovirus B, CVB3, BGM, read-out: Exp 1 EC50 BGM

SMILES | EC50 [µM]
COc1ccc(N(Cc2ccccc2)C(=O)c2ccco2)cc1 [Compound 19c, N-Benzyl-N-(4-methoxyphenyl)furan-2-carboxamide] | 3.95
